Consider three compounds from patent US5981574A, “Phenanthrofuran derivatives” (Phytera, Inc., priority 1998, dated 1999).

The test deals with Human umbilical-vein endothelial cells (HUVEC). The test can be described thus: Anti-angiogenic activity in Tube Formation Assay (collagen tube, 1st Assay and 2nd Assay). It is filed as cell-based. The conditions noted are these: for inhibition at 1 µM / inhibition at 10 µM / inhibition at 1 µg/mL / inhibition at 10 µg/mL / inhibition at 30 µg/mL: Homo sapiens, HUVEC; for inhibition at 1 µM / inhibition at 10 µM: positive control; for inhibition at 10 µg/mL: 10 μg/ml; for inhibition at 30 µg/mL: 30 μg/ml. Here is the method: Anti-angiogenic activity: collagen tube
Human umbilical-vein endothelial cells (HUVEC; Kurabo Industries, Ltd., Osaka, Japan) were cultured with M-199 medium (Gibco, Gaithersburg, Md.) with […], bFGF (15 ng/mL; PeproTech EC, Ltd., Princeton, N.J.) and epidermal growth factor (EGF) (15 ng/mL; Upstate Biotechnology Inc., Lake Placid, N.Y.) until they become confluent. All experiments were performed using cells that were passaged at least five times. Eight volumes of type-I collagen solution (Nitta Gelatin Inc., Osaka, Japan)were mixed with one volume of 10X M-199 medium and one volume of reconstruction buffer (0.5 N NaOH, 200 mM HEPES and 260 mM NaHCO3).
Collagen gel (300 μL/well) was placed in 24-well culture plates (NUNC) and incubated for 1.5 hours. HUVEC (1.4×10^5 /0.5 mL) were seeded in the collagen-coated plates and cultured for 2 hours at 37° C. Fifty microliters of sample were added. The collagen gel was replaced (300 μL/well), and the mixture was cultured for 1.5 hours. Three hundred fifty microliters of M-199 medium with […], 30 ng/mL basic fibroblast growth factor (bFGF) were added, and the mixture was cultured for 20 hours. One field per well was photographed with a phase-contrast microscope, and the length of the tube structures were measured on a Macintosh computer using the public domain NIH Image program (see Table 1 for results). Erbstatin was used as a positive control for inhibition of angiogenesis.

The mark [1] stands for this setting: 1st Assay, 1 μg/ml, n.e.: no effect, over 100% = more inhibition than in control cultures without bFGF.
Setting [2] is: 1st Assay, over 100% = more inhibition than in control cultures without bFGF.
[3] abbreviates: 2nd Assay, over 100% = more inhibition than in control cultures without bFGF.

Take `O=CN/C=C/c1cc(O)ccc1O` [Erbstatin, reference compound]: for the setting “1st Assay”, the inhibition (commonly the drop in the measured response relative to a control, in per cent) at 1 µM was determined as 7.6% and the inhibition at 10 µM is 118%. Where the note is “2nd Assay”, the inhibition at 1 µM was found to be 6.7% and the inhibition at 10 µM worked out at 108%.

Regarding `CC1=C(C)C2=CC(=O)c3c(c(O)c4oc(C)cc4c3O)C2(C)CC1` (stereo not drawn) [Formula I-A fraction], the inhibition at 1 µg/mL under setting [1] was 115% and the inhibition at 1 µg/mL (2nd Assay, 1 μg/ml, over 100% = more inhibition than in control cultures without bFGF) turned out to be 108%. The inhibition at 10 µg/mL stood at 119% under setting [2] and 108% under setting [3]. Also, the inhibition at 30 µg/mL is, setting by setting: under setting [2], 119%; under setting [3], 107%.

Take `CC1=C(C)C2=CC(=O)c3c(c(O)c4occ(C)c4c3O)C2(C)CC1` (stereo not drawn) [Ajuforrestine A fraction, 1,11b-dihydro-7,11-dihydroxy-3,4,8,11b-tetramethyl-phenanthro[3,2-b]furan-6(2H)-one]: under setting [1], the “% of inhibition (tube formation)” value is reported as “n.e”. Moreover, the inhibition at 10 µg/mL under setting [2] worked out at 99.6% and the inhibition at 10 µg/mL under setting [3] is 98%. Also, the inhibition at 30 µg/mL by setting is: under setting [2], 102%; under setting [3], 109%.
